Patent publication US20250145608A1, “KRAS DEGRADING COMPOUNDS COMPRISING ANNULATED 2-AMINO-3-CYANO THIOPHENES” (Boehringer Ingelheim Int'l GmbH Corp., priority 2021, published 2025)
Read-outs that look alike come from different tables or passages of the source.

Key:
Assay type in all cases: cell-based
[1] = tested on: LOVO cells; assay: LOVO CTG proliferation assay (120 h) (CRC, G13D); conditions: Homo sapiens
Method: LOVO CTG Proliferation Assay (120 h) (CRC, G13D)
(§1) LOVO cells (ATCC CCL-229) are dispensed into 384-well plates, flat and clear bottom (Greiner, PNr. 781091) at a density of 1000 cells per well in 60 μL DMEM (Sigma D6429)+10% Fetal Calf Serum (HyClone, PNr.: SH30084.03) and incubated at 37° C. in a CO2 incubator overnight. The next day, compounds (10 mM stock in DMSO) are added with the ECHO acoustic liquid handler system (Beckman Coulter), including DMSO controls. Plates are incubated for 120 h, and cell viability is measured using CellTiter-Glo luminescent cell viability reagent (Promega product code G7570). Viability (stated as percent of control) is defined as relative luminescence units RLU of each well divided by the RLU of cells in DMSO controls. IC50 values are determined from viability measurements by non-linear regression using a four-parameter model.

[2] = tested on: A375 cells; assay: A375 CTG proliferation assay (120 h) (melanoma, wt, B-Raf mutant, negative control); conditions: Homo sapiens, A-375, negative control cell line
Method: A375 CTG Proliferation Assay (120 h) (Melanoma, Wt, B-Raf Mutant, Negative Control)
as §1, with “A375” for “LOVO”, “CRL-1619)” for “CCL-229)”, “300” for “1000”, “at logarithmic dose series using” for “with”, “HP Digital Dispenser D300 (Tecan),” for “ECHO acoustic liquid handler system (Beckman Coulter),”

[3] = biological target: T1, KRAS4B WT (Homo sapiens, UniProt P01116); assay: HiBit KRAS4B mutant spectrum degradation assay, KRAS4B WT in GP5d cells (18 h); conditions: KRAS mutation G12WT
T1 construct: HiBit; expressed in transfected cells; host or cells: GP5d cells (ECACC 95090715), stably transduced with lentivirus, CMV promoter
Text: (§2) The therapeutically relevant mutant KRAS constructs (WT, G12C, G12D, G12V, G13D) were obtained by site directed mutagenesis using a KRAS4B WT cDNA construct as a template. GP5d cells (ECACC Cat. No. 95090715) were transduced with lentiviral vectors expressing mutant KRAS4B cDNA under control of a CMV promoter. Stably transduced cells were selected using a neomycin selectable marker encoded on the construct.
(§3) To assess PROTAC-mediated degradation of various KRAS mutants, GP5d cells stably transduced with KRAS4B constructs as described above were seeded at 25000 cells per well in 100 μL Dulbecco's Modified Eagle medium (Sigma cat. no. D6429) supplemented with 10% fetal calf serum into white bottom opaque 96 well plates (Perkin Elmer cat no. 5680). Plates were incubated at 37° C., 5% CO2 in a humidified incubator over night to allow the cells to adhere. […] Plates were further incubated at 37° C. for 18 hours. Following incubation, 100 μL per well Promega Nano-Glo HiBit lytic detection reagent mix (Promega Nano-Glo HiBit Lytic Detection System #N3050), prepared according to the manufacturer's instructions in the kit, were added. To allow for adequate cell lysis, plates were incubated on an orbital shaker for 15 min and further incubated 30 min at room temperature. Upon completion of cell lysis, luminescence was measured using an Envision plate reader using the Ultrasensitive Luminescence Protocol for 96 well plates. Luminescence levels were normalized by the values obtained with DMSO-treated samples and plotted as percent of DMSO control. DC50 values were computed using a four parametric logistic model and are reported in nM in Table 65 for representative example (Ex.) compounds of the invention. Dmax values represent the maximal extent of degradation observed and is stated as percent of control (% Ctrl.) treatments in Table 66 for representative example (Ex.) compounds of the invention.

[4] = biological target: T2, KRAS4B G12C (Homo sapiens, UniProt P01116, G12C); assay: HiBit KRAS4B mutant spectrum degradation assay, KRAS4B G12C in GP5d cells (18 h); conditions: KRAS mutation G12C
T2 construct: HiBit; expressed in transfected cells; host or cells: GP5d cells (ECACC 95090715), stably transduced with lentivirus, CMV promoter
Text: as §2, §3

[5] = tested on: NCI-H358 cells; assay: NCI-H358 CTG proliferation assay (120 h) (NSCLC, G12C); conditions: Homo sapiens
In short: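 IC50 values derive from four-parameter nonlinear regression of CellTiter-Glo viability (RLU relative to DMSO wells) after 120 h of exposure. Cells were plated in RPMI-1640 + 10% FCS at 2000 per well (assay 1) or 200 per well (assay 2). Untreated cells were measured at compound addition as T0.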

[6] = biological target: T3, KRAS4B G12V (Homo sapiens, UniProt P01116, G12V); assay: HiBit KRAS4B mutant spectrum degradation assay, KRAS4B G12V in GP5d cells (18 h); conditions: KRAS mutation G12V
T3 construct: HiBit; expressed in transfected cells; host or cells: GP5d cells (ECACC 95090715), stably transduced with lentivirus, CMV promoter
Text: as §2, §3

[7] = biological target: T4, KRAS4B G13D (Homo sapiens, UniProt P01116, G13D); assay: HiBit KRAS4B mutant spectrum degradation assay, KRAS4B G13D in GP5d cells (18 h); conditions: KRAS mutation G13D
T4 construct: HiBit; expressed in transfected cells; host or cells: GP5d cells (ECACC 95090715), stably transduced with lentivirus, CMV promoter
Text: as §2, §3

[8] = assay 1, read-out: H358 (assay 1) IC50
[9] = assay 2, read-out: H358 (assay 2) IC50

T4 sequence (P01116 1-188 isoform P01116-2 G13D): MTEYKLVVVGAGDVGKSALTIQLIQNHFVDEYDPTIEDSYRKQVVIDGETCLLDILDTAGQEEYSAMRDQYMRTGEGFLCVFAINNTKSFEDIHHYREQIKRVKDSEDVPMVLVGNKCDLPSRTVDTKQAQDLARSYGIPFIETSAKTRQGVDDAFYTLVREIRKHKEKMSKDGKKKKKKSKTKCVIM
T2 sequence (P01116 1-188 isoform P01116-2 G12C): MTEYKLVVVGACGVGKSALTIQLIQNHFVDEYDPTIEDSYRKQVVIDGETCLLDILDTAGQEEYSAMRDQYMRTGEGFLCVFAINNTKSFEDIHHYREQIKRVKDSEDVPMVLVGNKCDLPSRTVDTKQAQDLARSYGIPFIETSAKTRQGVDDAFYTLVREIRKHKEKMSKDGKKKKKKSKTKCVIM
T1 sequence (P01116 1-188 isoform P01116-2): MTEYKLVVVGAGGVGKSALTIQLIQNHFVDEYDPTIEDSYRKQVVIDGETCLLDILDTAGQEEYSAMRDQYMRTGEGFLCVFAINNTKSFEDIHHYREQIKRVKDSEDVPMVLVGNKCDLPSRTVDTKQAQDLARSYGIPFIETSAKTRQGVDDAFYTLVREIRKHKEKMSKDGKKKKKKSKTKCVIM
T3 sequence (P01116 1-188 isoform P01116-2 G12V): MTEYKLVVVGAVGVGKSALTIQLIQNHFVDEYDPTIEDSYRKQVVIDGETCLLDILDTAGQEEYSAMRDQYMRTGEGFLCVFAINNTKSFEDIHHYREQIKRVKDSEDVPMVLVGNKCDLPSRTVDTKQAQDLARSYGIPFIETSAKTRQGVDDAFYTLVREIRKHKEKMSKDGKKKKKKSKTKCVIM

| Structure (SMILES) | IC50 [1] [nM] | IC50 [2] [nM] | DC50 [3] [nM] | Dmax at 18 h [3] [% Ctrl.] | DC50 [4] [nM] | Dmax at 18 h [4] [% Ctrl.] | IC50 [5, 8] [nM] | DC50 [6] [nM] | Dmax at 18 h [6] [% Ctrl.] | DC50 [7] [nM] | Dmax at 18 h [7] [% Ctrl.] | IC50 [5, 9] [nM] |
| --- | --- | --- | --- | --- | --- | --- | --- | --- | --- | --- | --- | --- |
| Cc1ncsc1-c1ccc([C@H](CO)NC(=O)[C@@H]2C[C@@H](O)CN2C(=O)[C@H](C(C)C)n2cc(OCCCC(C)N3CCCN(c4nccc(-c5noc([C@@]6(C)CCCc7sc(N)c(C#N)c76)n5)n4)[C@@H](C)C3)nn2)cc1 (stereo partly shown) [I-30] | 86.4 | ≥ 3000 | 0.4 | 97.8 | 1.2 | 95.6 | 29.3 | 2.2 | 91.0 | 1 | 91.9 | – |
| Cc1ncsc1-c1ccc([C@H](C)NC(=O)[C@@H]2C[C@@H](O)CN2C(=O)C(C(C)C)n2cc(OCCCCN3CCCN(c4nccc(-c5noc([C@@]6(C)CCCc7sc(N)c(C#N)c76)n5)n4)[C@@H](C)C3)nn2)cc1 (stereo partly shown) [I-28] | 649 | 1090 | – | – | – | – | 32 | – | – | – | – | 81.4 |
| Cc1ncsc1-c1ccc([C@@H](NC(=O)[C@@H]2C[C@@H](O)CN2C(=O)[C@H](C(C)C)n2cc(OCCCN3CCCN(c4nccc(-c5noc([C@@]6(C)CCCc7sc(N)c(C#N)c76)n5)n4)[C@@H](C)C3)nn2)[C@H](O)C(C)C)cc1 (single isomer, unassigned) [I-43] | 22.2 | ≥ 3000 | 0.5 | 98.1 | 1.1 | 95.6 | 50.8 | 2.6 | 89.4 | 1.1 | 90.4 | 8.1 |
| Cc1ncsc1-c1ccc([C@H](CO)NC(=O)[C@@H]2C[C@@H](O)CN2C(=O)[C@H](C(C)C)n2cc(OC(C)CCCN3CCCN(c4nccc(-c5noc([C@@]6(C)CCCc7sc(N)c(C#N)c76)n5)n4)[C@@H](C)C3)nn2)cc1 (stereo partly shown) [I-31] | 344 | ≥ 3000 | 1.7 | 97.5 | 3.6 | 94.7 | 159 | 8.7 | 89.2 | 2.7 | 89.7 | – |
| Cc1ncsc1-c1ccc(CNC(=O)[C@@H]2C[C@@H](O)CN2C(=O)[C@@H](c2cc(OCCCN3CCCN(c4nccc(-c5noc([C@@]6(C)CCCc7sc(N)c(C#N)c76)n5)n4)[C@@H](C)C3)no2)C(C)C)cc1 (single isomer, unassigned) [I-25] | 53.5 | – | 0.8 | 96 | 1.9 | 92.5 | 45.6 | 3.8 | 90.5 | 2.5 | 94 | 63.9 |
| Cc1ncsc1-c1ccc([C@H](CCO)NC(=O)[C@@H]2C[C@@H](O)CN2C(=O)[C@H](C(C)C)n2cc(OCCCCN3CCCN(c4nccc(-c5noc([C@@]6(C)CCCc7sc(N)c(C#N)c76)n5)n4)[C@@H](C)C3)nn2)cc1 [I-38] | 597 | ≥ 3000 | – | – | – | – | 98.8 | – | – | – | – | – |
